Where two headings read alike, the source gives them in different places.
Legend:
HT-29 cells = test: Cell cycle analysis of synchronized cells; format: cell-based; details: 48 h of treatment with 5-FU and HmdU
Description: Panel A is a cell cycle analysis of synchronized HT-29 cells with 5-FU, HmdU, and combined 5-FU/HmdU treatment over a period of two days.
First, clonogenic assays were performed to determine the time course of the combination of 5-FU and HmdU. […] Subsequently, cell cycle distribution was assessed.

[1] = test system: cells treated with 5-FU and HmdU; test: Effect of PARP-1 inhibitors on cytotoxicity of 5-FU and HmdU; details: PARP-1 inhibitor added
Description: (§1) Taking account of effect of 3-aminobenzamide on cell cycle shown FIG. 14B, effects of PARP-1 inhibitors on cytotoxicity were examined.

[2] = test system: cells treated with 5-FU and HmdU
Description: as §1

HT-29 colon cancer cells = test: Cell growth assay (WST-1), combination analysed with CombiTool; format: cell-based; details: for synergistic activity on growth inhibition in combination with HmdU: 5-FU related compound used with HmdU; for synergistic activity on growth inhibition when combined with 5-FU: HmdU related drug combined with 5-FU
Description: In a typical cell growth assay, cells were plated in 96-well plates on Day 0, and indicated concentrations of drugs were added on Day 1. Each condition was replicated in triplicate. Subsequently, quantities of metabolically active cells in each well were measured by WST-1 assay on Day 4. The WST-1 assay (assay reagents from Roche) measures the concentration of formazan converted from a tetrazolium salt, WST-1, by a mitochondrial succinate-tetrazolium-reductase system.
CombiTool is a computer program for the analysis of combination effects of biologically active agents and is described in Dressler et al. (Computers and Biomedical Research (1999) 32:145-160). It performs model calculations and an analysis of experimental combination effects for two or three agents according to both the Bliss independence and the Loewe additivity criteria. Zero interaction response surfaces are calculated from single-agent dose-response relations and compared to experimental combination data. The calculation of response surfaces for Loewe additivity is based on a new approach which combines the implicit definition equation in terms of doses alone with single-agent dose-response relations. CombiTool has a built-in graphics facility which allows for the direct visualization of the response surfaces or the corresponding contour plots and the experimental data.
In the present example, the in vitro effects of 5-FU and HmdU treatment were assessed in several cell lines. […] FIG. 1B show the results interpreted with the CombiTool program which indicates synergistic experimental data by large gray circles above the lower additive results when the drugs are used alone. […] FIGS. 1C and 1D show similar results from experiments in the colon cancel cell line, HCT116.
Further testing was performed on the HT-29 cell line to assess whether compounds that are structurally and/or functionally related to 5-FU and HmdU also display synergistic activity on growth inhibition. In a series of experiments 5-FU was tested with: (1) 5-Hydroxymethyluracil (HmU), a base form which is subsequently converted to a nucleoside form, HmdUrd; (2) Deoxyuridine (dUrd), a nucleoside which is different from HmdU by the lack of modification at the 5-carbon position; and (3) 5-Hydroxydeoxyuridine (OHdU), a nucleoside which is different from HmdU by the lack of a methyl group in the 5-carbon modification. […] See FIG. 7A-7D (HmU—obtained from Cayman Chemical and Aldrich Chemical Company, respectively+5FU), FIG. 8A-8B (dUrd+5FU), and FIG. 9A-9B (OHdU+5FU).
Another set of experiments tested several alternative 5-FU agents in combination with HmdU to determine if synergy exists when the agents were administered in combination. The 5-FU related compounds used with HmdU were: (1) 5-Fluorodeoxyuridine (5-FdU), a deoxyribonucleoside (2) Deoxyadenosine (dA), an agent capable of decreasing dTTP; and (3) Raltitrexed, a structural analog of 5,10-methylene tetrahydrofolate (CH2THF), and a specific inhibitor of thymidylate synthase (TS). […] See FIGS. 11 (dA) and 12 (Raltitrexed).

HT-29 = test: Caspase inhibitor rescue from cell killing by 5-FU and HmdU; format: cell-based; details: caspase inhibitor added
Description: Further, experiments were performed to uncover whether the combined treatment with 5-FU and HmdU induces PARP1 cleavage, which would indicate that apoptosis is the pathway responsible for the cytotoxic effects. […] Both of the results in FIGS. 17 and 18 indicate that the cell killing by the combined drug treatment is not via apoptosis. However, the combination has a synergistic effect on the cytotoxicities of 5-FU and HmdU, and derivatives thereof.

Compound	synergistic activity on growth inhibition in combination with HmdU (HT-29 colon cancer cells)	synergistic activity on growth inhibition when combined with 5-FU (HT-29 colon cancer cells)	further results
NC(=O)c1cccc(N)c1 [3-aminobenzamide]	–	–	effect of added agent on the cell cycle (HT-29 cells): allows cells to complete DNA replication; effect on growth inhibition by 5-FU and HmdU [1]: rescued cells from growth inhibition
Nc1ccc2c3c(cccc13)C(=O)NC2=O [4-amino-1,8-naphtalimide]	–	–	effect on growth inhibition by 5-FU and HmdU [2]: rescued cells from growth inhibition
O=c1[nH]c(=O)n([C@H]2C[C@H](O)[C@@H](CO)O2)cc1F [5-FdU, 5-Fluorodeoxyuridine]	strong synergy	–	–
O=c1[nH]cc(CO)c(=O)[nH]1 [HmU, 5-Hydroxymethyluracil]	–	did not show any significant synergistic effects	–
O=c1[nH]c(=O)n([C@H]2C[C@H](O)[C@@H](CO)O2)cc1O [OHdU, 5-Hydroxydeoxyuridine]	–	did not show any significant synergistic effects	–
CC(C)[C@H](NC(=O)c1ccc2ccccc2n1)C(=O)N[C@@H](CC(=O)O)C(=O)COc1c(F)cccc1F [QVD]	–	–	rescue from cell killing by the 5-FU and HmdU treatment (HT-29): did not rescue
Cc1nc2ccc(CN(C)c3ccc(C(=O)N[C@@H](CCC(=O)O)C(=O)O)s3)cc2c(=O)[nH]1 [Raltitrexed]	did not show any significant synergistic effects	–	–
Cn1c(=O)c2c(ncn2C)n(C)c1=O [caffeine]	–	–	effect of added agent on the cell cycle (HT-29 cells): overcomes G2/M arrest
Nc1ncnc2c1ncn2[C@H]1C[C@H](O)[C@@H](CO)O1 [dA, Deoxyadenosine]	did not show any significant synergistic effects	–	–
O=c1ccn([C@H]2C[C@H](O)[C@@H](CO)O2)c(=O)[nH]1 [dUrd, Deoxyuridine]	–	did not show any significant synergistic effects	–

— US8617540B2, “Combinational chemotherapy treatment” (Fox Chase Cancer Center, priority 2009, dated 2013)
